Source: article PMC7076382 (Pharmaceutics, 2020)
Read-outs that look alike come from different tables or passages of the source. Blank lines part the entries; values can stand above or below the compound they belong to. Non-standard residues stand in square brackets, D forms with d. Residues, ends and D or L forms follow the SMILES beside them. dTrp(2-Me) = Cc1[nH]c2ccccc2c1C[C@@H](N)C(=O)O

Experiments:
jejunal segment [1] = assay: Single-pass intestinal perfusion (SPIP), jejunal lumen-to-blood effective permeability (Peff); conditions: any investigated luminal concentration: SDS 5 mg/mL; caprate 5, 10, 20 mg/mL
Description: (§1) In short, male Wistar Han rats (strain 273) from Charles River Co. (Cologne, Germany), weight 270–363 g, were used. On the study day, the rats were anesthetized using an intraperitoneal injection of a 5% w/v thiobutabarbital solution (180 mg/kg). Body temperature was maintained at 37.5 ± 0.5 °C. To validate the condition of the animal, the systemic arterial blood pressure was continuously recorded by connecting the arterial catheter to a transducer operating a PowerLab system (AD Instruments, Hastings, UK).
(§2) At the SPIP experiment, the abdomen was opened along the midline and a jejunal segment of 10–15 cm was cannulated, covered with polyethylene wrap, and placed outside the abdomen. The bile duct was cannulated to avoid pancreaticobiliary secretion into the duodenum. […] During the first 30 min following surgery, each intestinal segment was single-passed perfused with 37 °C phosphate buffered saline (6 mM, pH 6.5 or 7.4). […] The length of the intestinal segment was measured after the jejunal cannulation as was the wet tissue weight of the segment after the experiment. The perfusion rate was at all times 0.2 mL/min (peristaltic pump, Gilson Minipuls 3, Le Bel, France).
(§3) Each perfusate experiment was divided into two parts. […] The 10 and 20 mg/mL concentrations (suspensions) were used to evaluate if concentrations above saturation had any impact on membrane permeability.
(§4) The five experiments were designed such that each rat was its own control. The experimental period started with a rapid filling (<30 s) of the whole segment with the perfusate (about 1.5 mL for a 10 cm segment). The intestinal segment and perfusates were kept at 37 °C, and all outgoing perfusate was collected and weighed at 15-min intervals.
(§5) In short, an input rate was acquired by deconvolution of the plasma concentration–time profiles following the intestinal perfusion. […] From the input rate, an absorption rate was then calculated by compensating for first-pass extraction (Ffirstpass) of each compound in the rat intestine and liver. […] Plasma CL values were derived from the two-compartment analysis of the intravenous plasma data and an assumed rat liver blood flow of 47 mL/min/kg [24]. The Peff (cm/s) was then calculated by relating the absorption rate to the intestinal luminal area using Equation (2):(2) Peff=absorption rate/A × C where A is the area of the exposed intestinal segment described as a smooth cylinder with a radius of 0.2 cm and C is the concentration entering the luminal segment. Peff was evaluated from 0 to 135 min, and the mean Peff value of the two perfusion periods (60-min control and 75-min test) was regarded as representative for each individual rat.
(§6) Peff and CLCr-EDTA values, are expressed as the mean ± standard deviation (SD) or standard error of the mean (SEM). […]

rat intestine = conditions: cited from earlier work; for effect on permeation of small model drugs: caprate at 2 and 5 mg/mL
jejunal segment [2] = assay: Blood-to-lumen jejunal 51Cr-EDTA clearance (CLCr-EDTA) during SPIP
Description: as §2
Luminal perfusates and blood plasma at 0 and 135 min were analyzed for ^51Cr activity (cpm) in a gamma counter (1282 Compugamma CS, Pharmacia AB, Uppsala, Sweden). A linear regression analysis of the plasma samples was made to obtain a corresponding plasma value for each perfusate sample. […] CLCr-EDTA was determined during the last 45 min for the control solution and during the last 60 min for the test solutions (the first 15 min in each period was for equilibration). […]
as §6

Caco-2 model = tested on: Caco-2 model; set-up: method as in PMID 11578108; conditions: cited from earlier work
colonic = conditions: cited from earlier work
intestinal lumen = tested on: intestinal lumen; set-up: method as in PMID 29758344; conditions: caprate dose of 11.4 mg/mL, formulation pH 6.5 and 7.4; cited from earlier work
[3] = rat, in vivo, iv
Description: (§7) Blood samples of <0.3 mL were collected from the femoral artery for a maximum volume of 4 mL during each experiment. All sampled blood volumes were replaced by an equivalent volume of saline (0.9% NaCl) containing 70 mg/mL bovine serum albumin. For the intravenous administration, blood was sampled over 6 h (at 5, 10, 20, 40, 60, 90 min and at 2, 4, and 6 h). […] The blood samples were put on ice and centrifuged (5000× g, 3 min at 4 °C) within 10 min of sampling; 100 μL of the plasma was transferred to 0.5 mL micro tubes and stored at −80 °C until analysis.
(§8) Plasma CL values were derived from the two-compartment analysis of the intravenous plasma data and an assumed rat liver blood flow of 47 mL/min/kg [24].
(§9) The plate was vortex-mixed for 10 min (pulse 1200) after which it was centrifuged for 10 min at 2862× g. The supernatants were then injected into the UHPLC-MS/MS system. The column used was an Acquity UPLC Peptide BEH C18 (50 × 2.1 mm length × inner diameter, 1.7 µm particle size) from Waters Corp. (Milford, MA, USA). The mobile phase consisted of (A) 0.1% formic acid in water and (B) 0.1% formic acid in acetonitrile. Gradient elution was initially 2.0% B for 0.50 min, with a linear increase to 90% B for 1.5 min, held constant at 90% B for 0.30 min, then back to 2.0% B in 0.30 min, and constant again at 2.0% B for 0.40 min. The total run time was 3.0 min.

in vivo = conditions: rat, iv
Description: as §7, §8, §9

[4] = cited from earlier work; for Log D6.5: pH 6.5; for Log D7.4: pH 7.4
[5] = Single-pass intestinal perfusion (SPIP), jejunal lumen-to-blood effective permeability (Peff); conditions: male, Wistar Han, rat, other: single-pass jejunal perfusion
Description: as §1, §2, §3, §4, §5, §6

[6] = rat, in vivo, iv; remark: listed apart in the source
Description: as §7, §8, §9

rat liver = conditions: in vivo; cited from earlier work
[7] = rat
Description: as §1, §2, §3, §4, §5, §6

jejunal segment [8] = conditions: rat
Description: as §1, §2, §3, §4, §5, §6

serine protease = tested on: serine protease; set-up: method as in PMID 9643439, PMID 11578108; conditions: rat, pefabloc SC at 0.3 mg/mL; cited from earlier work
[9] = dog, in vivo, po, 600 mg; cited from earlier work
[10] = n-octanol-water, source not given

Compound: CCCCCCCCCCCCOS(=O)(=O)[O-].[Na+] [SDS, sodium dodecyl sulfate]
effect on hexarelin absorption (Peff ratio of hexarelin) (jejunal segment [1]): Neither SDS nor caprate at any of the investigated luminal concentrations enhanced absorption | pH dependence of the effect on the permeability of enalaprilat and CLCr-EDTA (rat intestine; SDS at 5 mg/mL, pH 6.5 vs. 7.4): unaffected by pH | increase of absorption of atenolol (rat intestine; SDS at 5 mg/mL, rat SPIP): 10 fold | increase of absorption of enalaprilat (rat intestine; SDS at 5 mg/mL, rat SPIP): 40 fold | increase of absorption of ketoprofen (rat intestine; SDS at 5 mg/mL, rat SPIP): not at all | effect on lumen-to-blood transport of four low permeation model compounds and on CLCr-EDTA (rat intestine; SPIP model, acyclovir, atenolol, enalaprilat, phenol red): increase the lumen-to-blood transport | effect on permeation of small model drugs (rat intestine; rat SPIP, SDS at 5 mg/mL): increases permeation in both absorptive and secretory directions | CLCr-EDTA ratio (test vs. control period) (jejunal segment [2]; permeation enhancer at 5 mg/mL, pH 7.4, solution): significant increase

Compound: O=C([O-])CN(CCN(CC(=O)[O-])CC(=O)[O-])CC(=O)[O-].[51Cr+3] [^51Cr-EDTA, ^51Chromium-labeled ethylenediaminetetraacetate]
CLCr-EDTA (blood-to-lumen clearance) (jejunal segment [2]; control solution, mean ± SD, n = 24): 0.092 ± 0.039 mL/min/100 g

Compound: CCCCCCCCCC(=O)[O-].[Na+] [caprate, sodium caprate]
increase of apparent permeability of hexarelin (Caco-2 model): over 200 fold | effect of caprate when pH was increased from 6.5 to 7.4 (colonic; 4 mg/mL caprate, rectal perfusion study): increased | human colonic Peff (colonic): 1.4 ± 0.4 × 10^−4 cm/s | absorption-enhancing effect on small low permeability model compounds (rat intestine; caprate at 2 mg/mL, rat jejunal SPIP): did not observe any absorption-enhancing effect | effective caprate concentrations (rat intestine; rat SPIP model): 4 to 20 mg/mL | effect on permeation of small model drugs (rat intestine; rat SPIP, SDS at 5 mg/mL): does not | absorption-enhancing effect (intestinal lumen): no effect

C1 (intercept of first term) [3]: 428.6 (449.1/408.0) nM | C2 (intercept of second term) [3]: 87.7 (105.5/70.0) nM | λ1 (slope of first term) [3]: 3.9 (4.6/3.3) h^−1 | λ2 (slope of second term) [3]: 0.38 (0.45/0.31) h^−1 | clearance (in vivo): 3 mL/min | Papp at 100 µM [5]: 1.3 ± 0.9 ×10⁻⁶ cm/s
Compound: C[C@H](N[C@@H](CCc1ccccc1)C(=O)O)C(=O)N1CCC[C@H]1C(=O)O [enalaprilat]
Log D6.5 [4, 10]: −1.0 | Log D7.4 [4, 10]: −1.0 | basal permeability (rat intestine; rat SPIP): 1.1 ×10⁻⁶ cm/s

C1 (intercept of first term) [3]: 355.2 (416.9/293.5) nM | C2 (intercept of second term) [3]: 133.7 (149.1/118.3) nM | λ1 (slope of first term) [3]: 13.7 (17.5/10.0) h^−1 | λ2 (slope of second term) [3]: 2.08 (2.26/1.91) h^−1 | clearance [6]: 10.3 mL/min | Papp [7]: 0.19 ± 0.14 ×10⁻⁶ cm/s | permeability at pH 6.5 compared to pH 7.4 (jejunal segment [8]): lower at pH 6.5 compared to pH 7.4
Compound: Cc1[nH]c2ccccc2c1C[C@@H](NC(=O)[C@@H](N)Cc1cnc[nH]1)C(=O)N[C@@H](C)C(=O)N[C@@H](Cc1c[nH]c2ccccc12)C(=O)N[C@H](Cc1ccccc1)C(=O)N[C@@H](CCCCN)C(N)=O [hexarelin] (H-H[dTrp(2-Me)]AW[dF]K-NH2)
Ffirstpass (first-pass extraction) (rat liver): 0.63 | Log D6.5 [4]: −3.40 | Log D7.4 [4]: −2.26

Compound: CC(C(=O)O)c1cccc(C(=O)c2ccccc2)c1 (centres unmarked) [ketoprofen]
basal permeability (rat intestine; rat SPIP): 160 ×10⁻⁶ cm/s

Compound: Cl.NCCc1ccc(S(=O)(=O)F)cc1 [pefabloc SC]
inhibition of intestinal degradation of hexarelin (serine protease): completely inhibits

Compound: semaglutide
bioavailability [9]: 0.29%
